Source: patent US4788186A, “6-substituted-s-triazolo[3,4-a]phthalazine derivatives” (Gruppo Lepetit S.p.A., priority 1982, dated 1988)
pKi: −log10 of the molar value.

Experiments:
[1] = target: rat brain benzodiazepine receptors (3H-diazepam receptor); assay: benzodiazepine receptor binding test in vitro (inhibition of specific 3H-diazepam binding to rat brain membranes); conditions: Ki = IC50/(1+C/KD), read-out: Ki (inhibitor constant, 3H-diazepam binding)
Excerpt: The pharmacological properties of the compounds of the present invention were first investigated by submitting them to the benzodiazepine receptor binding test in vitro.

[2] = test system: male rats of the CFHB Wistar strain; assay: conditioned avoidance test (secondary conditioned response, pole climbing); format: in vivo, rat (CFHB Wistar); conditions: intraperitoneally, doses of between about 1/30 and 1/10 of the corresponding LD50s
Description: (§1) Some of the compounds of the above list were also tested in vivo in those pharmacological tests thought to be predictive of anxiolytic activity in man. Classical pharmacological tests employed to confirm the antianxiety activity were the conditioned avoidance test and the antipentylenetetrazole test in mice. The conditioned avoidance test was carried out according to the method described by Cook and Weidley in Ann. N.Y. Acad. Sci. 1957, 66, 740, and subsequently modified by Maffii (J. Pharm. and Pharmacol., 1959, 11, 129-139). In this procedure a rat is placed in a chamber with a grid floor through which electric shocks may be delivered. This chamber is also equipped with a buzzer and with a wooden pole, electrically isolated, which is suspended from the top of the experimental chamber.
The animal soon learns to escape the shock by climbing the pole (unconditioned response--U.R.) and by climbing the pole in response to the buzzer alone (conditioned avoidance response--CR). After further exposure to the situation, the rat becomes conditioned and climbs the pole before the buzzer is activated; when this response becomes stable, the rat is considered to have developed a secondary conditioned response (CR2).
(§2) The drug to be studied is then administered to these long-trained animals and its deconditioning effect is evaluated. […] Moreover, the activity of some of the compounds of the present invention has been tested in the antipentylenetetrazole test in mice. The experiments have been carried out by following essentially the methodology described by Berger in J. Pharm. Exptl. Ther. 104, 468, (1952). More particularly, a fatal dose of pentylentetrazole (140 mg/kg s.c.) was administered to groups of ten mice each, 30 minutes after a selected dose of the potential anticonvulsant compound. […] Since the animals of the control group died within 30 minutes, the effectiveness of the compounds tested at each dose tested was expressed as the number of animals of the group which were still alive two hours after the administration of pentylenetetrazole, out of the total number of animals of the group (10).

[3] = test system: mice (pentylenetetrazole-induced death); assay: antipentylenetetrazole test in mice; format: in vivo; conditions: pentylenetetrazole 140 mg/kg s.c. 30 min later, alive after 2 hours
Description: as §1, §2

[4] = LD50 (acute toxicity, i.p.); conditions: in vivo, ip

SMILES	pKi [1]	effect on primary conditioned and unconditioned responses (CR and U.R.) [2]	effect on secondary conditioned response (CR2) [2]	also measured
c1ccc(-c2nnc3c4ccccc4c(N4CCCC4)nn23)cc1 [Example 27, 3-phenyl-6-(1-pyrrolidinyl)-1,2,4-triazolo[3,4-a]phthalazine]	7.80			
CC(O)CN(C)c1nn2c(-c3ccccc3)nnc2c2ccccc12 (stereo not drawn) [Example 29]	7.55			
c1ccc(-c2nnc3c4ccccc4c(N4CCOCC4)nn23)cc1 [Example 30]	7.74	without influencing the primary conditioned and the unconditioned responses (CR and U.R.)	effective in inhibiting the secondary conditioned response (CR2)	
COc1ccc(-c2nnc3c4ccccc4c(N(C)CC(C)O)nn23)cc1 (stereo not drawn) [Example 31]	7.77	without influencing the primary conditioned and the unconditioned responses (CR and U.R.)	effective in inhibiting the secondary conditioned response (CR2)	Protected/treated ([3]; dose 10 mg/kg i.p.): 6/10; Protected/treated ([3]; dose 20 mg/kg i.p.): 9/10; LD50 [4]: ≥ 300 mg/kg
COc1ccc(-c2nnc3c4ccccc4c(N(C)CCCO)nn23)cc1 [Example 32, N-(3-hydroxypropyl)-N-methyl-3-(4-methoxyphenyl)-1,2,4-triazolo[3,4-a]phthalazin-6-amine]	9.01			
CNc1nn2c(-c3ccccc3)nnc2c2ccccc12 [Example 35]	7.34			
CCNc1nn2c(-c3ccccc3)nnc2c2ccccc12 [Example 36]	7.32			
CN(C)c1nn2c(-c3ccccc3)nnc2c2ccccc12 [Example 41]	7.68			
CCN(CC)c1nn2c(-c3ccccc3)nnc2c2ccccc12 [Example 42]	7.24			
c1ccc(-c2nnc3c4ccccc4c(N4CCCCC4)nn23)cc1 [Example 43]	7.80			
CN1CCN(c2nn3c(-c4ccccc4)nnc3c3ccccc23)CC1 [Example 44]	7.24			
CC1(C)CN(c2nn3c(-c4ccccc4)nnc3c3ccccc23)C1 [Example 45]	7.49	without influencing the primary conditioned and the unconditioned responses (CR and U.R.)	effective in inhibiting the secondary conditioned response (CR2)	
CCN(C)c1nn2c(-c3ccccc3)nnc2c2ccccc12 [Example 46]	7.85			
COc1ccc(-c2nnc3c4ccccc4c(N4CCCC4)nn23)cc1 [Example 47]	8.41			
CC(=O)Nc1ccc(-c2nnc3c4ccccc4c(N4CCCC4)nn23)cc1 [Example 51]	7.40			
COc1ccc(-c2nnc3c4ccccc4c(N4CCCC4)nn23)cc1OC [Example 54]		without influencing the primary conditioned and the unconditioned responses (CR and U.R.)	effective in inhibiting the secondary conditioned response (CR2)	
Fc1ccc(-c2nnc3c4ccccc4c(N4CCCC4)nn23)cc1 [Example 64]	7.70			
COCCN(CCOC)c1nn2c(-c3ccc(OC)cc3)nnc2c2ccccc12 [Example 67]	8.57	without influencing the primary conditioned and the unconditioned responses (CR and U.R.)	effective in inhibiting the secondary conditioned response (CR2)	Protected/treated ([3]; dose 5 mg/kg i.p.): 4/10; Protected/treated ([3]; dose 10 mg/kg i.p.): 8/10; LD50 [4]: ≥ 300 mg/kg

SMILES	pKi [1]	effect on primary conditioned and unconditioned responses (CR and U.R.) [2]	effect on secondary conditioned response (CR2) [2]	also measured
CCOC(=O)C1CCN(c2nn3c(-c4ccc(OC)cc4)nnc3c3ccccc23)CC1 [Example 72]	8.82	without influencing the primary conditioned and the unconditioned responses (CR and U.R.)	effective in inhibiting the secondary conditioned response (CR2)	
CC1CC(C)CN(c2nn3c(-c4ccccc4)nnc3c3ccccc23)C1 (stereo not drawn) [Example 73]	6.68	without influencing the primary conditioned and the unconditioned responses (CR and U.R.)	effective in inhibiting the secondary conditioned response (CR2)	
Oc1ccc(-c2nnc3c4ccccc4c(N4CCCC4)nn23)cc1 [Example 74]	7.77			
Nc1ccc(-c2nnc3c4ccccc4c(N4CCCC4)nn23)cc1 [Example 75]	7.54			
COc1ccc(-c2nnc3c4ccccc4c(N4CCC(O)C4)nn23)cc1 (stereo not drawn) [Example 79]	8.57			
CCOc1nn2c(-c3ccccc3)nnc2c2ccccc12 [Example 85, 6-ethoxy-3-phenyl-1,2,4-triazolo[3,4-a]phthalazine]	8.11			
CCCCCOc1ccc(-c2nnc3c4ccccc4c(OCC)nn23)cc1OC [Example 93]		without influencing the primary conditioned and the unconditioned responses (CR and U.R.)	effective in inhibiting the secondary conditioned response (CR2)	
CCOc1nn2c(-c3ccc(OC)cc3)nnc2c2ccccc12 [Example 101]	8.54			
COc1ccc(-c2nnc3c4ccccc4c(OCCCCO)nn23)cc1 [Example 103, 6-(4-hydroxybutoxy)-3-(4-methoxyphenyl)-1,2,4-triazolo[3,4-a]phthalazine]	9.37			
CCOC(=O)CCCOc1nn2c(-c3ccc(OC)cc3)nnc2c2ccccc12 [Example 104, 4[[3-(4-methoxyphenyl)-1,2,4-triazolo[3,4-a]phthalazin-6-yl]oxy]butanoic acid ethyl ester]	9.09			
COCCOc1nn2c(-c3ccc(OC)cc3)nnc2c2ccccc12 [Example 105, 6-(2-methoxyethoxy)-3-(4-methoxyphenyl)-1,2,4-triazolo[3,4-a]phthalazine]	9.05	without influencing the primary conditioned and the unconditioned responses (CR and U.R.)	effective in inhibiting the secondary conditioned response (CR2)	Protected/treated ([3]; dose 15 mg/kg i.p.): 3/10; Protected/treated ([3]; dose 25 mg/kg i.p.): 8/10; LD50 [4]: ~500 mg/kg
COc1ccc(-c2nnc3c4ccccc4c(N(C)CCCC#N)nn23)cc1 [Example 107, 4-[[3-(4-methoxyphenyl)-1,2,4-triazolo [3,4-a]phthalazin-6-yl]methylamino]butanonitrile]	9.25			
CCOC(=O)CCCN(C)c1nn2c(-c3ccc(OC)cc3)nnc2c2ccccc12 [Example 108]	9.28			
CCS(=O)(=O)c1nn2c(-c3ccccc3)nnc2c2ccccc12 [Example 112, 6-(ethyl-sulfonyl)-3-phenyl-1,2,4-triazolo[3,4-a]phthalazine]	7.22	without influencing the primary conditioned and the unconditioned responses (CR and U.R.)	effective in inhibiting the secondary conditioned response (CR2)	
c1ccc(-c2nn3cnnc3c3ccccc23)cc1 [Example 114, 6-phenyl-1,2,4-triazolo[3,4-a]phthalazine]		without influencing the primary conditioned and the unconditioned responses (CR and U.R.)	effective in inhibiting the secondary conditioned response (CR2)	
CCN(CC)CCN1C(=O)CN=C(c2ccccc2F)c2cc(Cl)ccc21 [Flurazepam, reference compound]	8.07			
O=C1Nc2ccc(Cl)cc2C(c2ccccc2)=NC1O (stereo not drawn) [Oxazepam, reference compound]	8.28			
